Measured values taken from PMC8776995 (Frontiers in Chemistry, 2022).
Values joined by “and” are separate entries in the source; they are usually repeats but may differ in a detail not shown here. Identical values can stand only once. Each block holds one compound with its values, some of them ahead of it.

Legend:
[1] = biological target: wild-type EGFR (Homo sapiens, UniProt P00533); test: EGFR kinase assay (ELISA); conditions: for IC50: IC50 (μM) EGFR, ELISA, 3 μmol/L ATP; for inhibition at 100 fM: concentration 0.0001 nM (reference for normalisation); for A450: raw ELISA absorbance
Procedure: The kinase enzyme of EGFR was purchased from Carna Bioscience (Kobe, Japan). A total of 10 ng/ml anti phosphotyrosine (PY713) antibody (abcam, Cambridge Science Park, United Kingdom) was precoated in 96-well ELISA plates. […] Then, a total of 3 μmol/L ATP was added and the reaction was continued for 2 h. […] After incubation, the wells were washed with PBS and then incubated with horseradish peroxidase (HRP)-conjugated streptavidin. The wells were visualized using 3,3′,5,5′-tetramethylbenzidine (TMB), and chromogenic reaction was ended with 2 mol/L H2SO4, the absorbance was read with a multimode plate reader (PerkinElmer, United States) at 450 nm.

[2] = test system: H460 cells; test: CCK-8 antiproliferation assay, H460; conditions: for Inhibitory efficacy: H460 cells; for IC50: NCI-H460, 48 h, read-out: IC50 (μM) H460, CCK-8, 48 h, average ± SD of three independent experiments
[3] = test system: A549 cells; test: CCK-8 antiproliferation assay, A549; conditions: for Inhibitory efficacy: A549 cells; for IC50: A549, 48 h, read-out: IC50 (μM) A549, CCK-8, 48 h, average ± SD of three independent experiments
[4] = test system: PC-9 cells; test: CCK-8 antiproliferation assay, PC-9; conditions: for IC50: PC-9, 48 h, read-out: IC50 (μM) PC-9; for inhibition at 1 µM: PC-9, read-out: Inhibitory efficacy, PC-9, 1uM, single repeats (Repeat 1-3), given as fraction; for inhibition at 2 µM: PC-9, read-out: Inhibitory efficacy, PC-9, 2uM, single repeats (Repeat 1-3), given as fraction; for inhibition at 8 µM: PC-9, read-out: Inhibitory efficacy, PC-9, 8uM, single repeats (Repeat 1-3), given as fraction; for inhibition at 16 µM: PC-9, read-out: Inhibitory efficacy, PC-9, 16uM, single repeats (Repeat 1-3), given as fraction; for Inhibitory efficacy: single repeats (Repeat 1-3), given as fraction
[5] = test system: H1975 cells; test: CCK-8 antiproliferation assay, H1975; conditions: for IC50: NCI-H1975, 48 h, read-out: IC50 (μM) H1975, CCK-8, 48 h, average ± SD of three independent experiments; for Inhibitory efficacy: H1975 cells
[6] = concentration 0.3 nM, one value per replicate column
[7] = concentration 0.3 nM, one value per replicate column, 0.0003 µM
[8] = concentration 3 nM, one value per replicate column
[9] = concentration 3 nM, one value per replicate column, 0.003 µM
[10] = concentration 30 nM, one value per replicate column
[11] = concentration 30 nM, one value per replicate column, 0.03 µM
[12] = concentration 300 nM, one value per replicate column
[13] = concentration 300 nM, one value per replicate column, 0.3 µM
[14] = concentration 3000 nM, one value per replicate column
[15] = concentration 3000 nM, one value per replicate column, 3 µM
[16] = concentration 30000 nM, one value per replicate column
[17] = concentration 30000 nM, one value per replicate column, 30 µM
[18] = 2uM, given as fraction, Repeat 1-3
[19] = 16uM, given as fraction, Repeat 1-3
[20] = Homo sapiens, NCI-H460, read-out: Inhibitory efficacy, H460 cells, 2uM, given as fraction, Repeat 1-3
[21] = 1uM, given as fraction, Repeat 1-3
[22] = 4uM, given as fraction, Repeat 1-3
[23] = Homo sapiens, A549, read-out: Inhibitory efficacy, A549 cells, 4uM, given as fraction, Repeat 1-3
[24] = Homo sapiens, A549, read-out: Inhibitory efficacy, A549 cells, 16uM, given as fraction, Repeat 1-3
[25] = 8uM, given as fraction, Repeat 1-3

Chain of wild-type EGFR (P00533 25-1210): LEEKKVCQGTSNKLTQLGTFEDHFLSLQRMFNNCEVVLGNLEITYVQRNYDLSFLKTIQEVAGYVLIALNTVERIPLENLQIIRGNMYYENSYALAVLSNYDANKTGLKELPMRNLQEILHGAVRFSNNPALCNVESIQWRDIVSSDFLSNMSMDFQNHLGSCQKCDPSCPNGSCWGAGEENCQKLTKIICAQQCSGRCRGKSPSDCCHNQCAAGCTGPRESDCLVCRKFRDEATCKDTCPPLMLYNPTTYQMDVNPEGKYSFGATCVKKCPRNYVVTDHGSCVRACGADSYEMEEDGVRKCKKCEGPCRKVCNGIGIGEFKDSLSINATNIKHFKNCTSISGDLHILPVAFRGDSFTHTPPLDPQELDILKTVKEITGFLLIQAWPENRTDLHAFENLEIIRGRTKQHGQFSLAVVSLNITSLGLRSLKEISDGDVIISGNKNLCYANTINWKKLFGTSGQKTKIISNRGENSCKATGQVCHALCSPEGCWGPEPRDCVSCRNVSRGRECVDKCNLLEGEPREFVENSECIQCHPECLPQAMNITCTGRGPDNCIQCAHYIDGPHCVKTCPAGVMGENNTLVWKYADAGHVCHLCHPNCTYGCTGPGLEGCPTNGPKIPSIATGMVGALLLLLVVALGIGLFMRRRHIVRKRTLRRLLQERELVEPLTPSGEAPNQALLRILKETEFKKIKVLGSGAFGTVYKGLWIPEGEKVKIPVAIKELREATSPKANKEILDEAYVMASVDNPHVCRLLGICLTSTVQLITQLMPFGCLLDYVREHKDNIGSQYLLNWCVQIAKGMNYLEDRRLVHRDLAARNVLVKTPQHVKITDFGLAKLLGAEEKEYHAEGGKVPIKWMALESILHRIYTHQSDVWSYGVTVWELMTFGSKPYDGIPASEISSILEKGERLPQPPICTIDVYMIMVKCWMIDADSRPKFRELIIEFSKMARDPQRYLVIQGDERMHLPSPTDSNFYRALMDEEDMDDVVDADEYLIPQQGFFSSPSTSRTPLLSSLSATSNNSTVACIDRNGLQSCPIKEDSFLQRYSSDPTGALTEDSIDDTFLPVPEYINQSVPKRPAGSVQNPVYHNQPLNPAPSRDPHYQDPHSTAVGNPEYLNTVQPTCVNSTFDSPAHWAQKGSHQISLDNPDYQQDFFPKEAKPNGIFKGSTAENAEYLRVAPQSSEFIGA

melting point: 106 to 109 °C | IC50 [1]: 28.1 µM | inhibition at 100 fM ([1]; one value per replicate column): 0% | inhibition at 30 pM ([1]; concentration 0.03 nM, one value per replicate column): 0% | inhibition at 0.0003 µM [1, 6]: 1.06% | Inhibition [1, 7]: 0.9259 | inhibition at 0.003 µM [1, 8]: 2.12% | Inhibition [1, 9]: 3.333 | inhibition at 0.03 µM [1, 10]: 6.35% | Inhibition [1, 11]: 7.222 | inhibition at 0.3 µM [1, 12]: 6.7% | Inhibition [1, 13]: 10.3704 | inhibition at 3 µM [1, 14]: 8.29% | Inhibition [1, 15]: 15.5556 | inhibition at 30 µM [1, 16]: 52.7% | Inhibition [1, 17]: 51.6667 | A450 ([1]; concentration 0.0001 nM): 0.772 and 0.745 | A450 ([1]; concentration 0.03 nM): 0.772 and 0.745 | A450 ([1]; concentration 0.3 nM): 0.766 and 0.74 | A450 ([1]; concentration 3 nM): 0.76 and 0.727 | A450 ([1]; concentration 30 nM): 0.736 and 0.706 | A450 ([1]; concentration 300 nM): 0.734 and 0.689 | A450 ([1]; concentration 3000 nM): 0.725 and 0.661 | A450 ([1]; concentration 30000 nM): 0.473 and 0.466 | IC50 ([2]; Homo sapiens): > 100 µM | IC50 ([3]; Homo sapiens): > 100 µM | IC50 ([4]; Homo sapiens): 23.5 ± 10.2 µM | IC50 ([5]; Homo sapiens): > 100 µM
Structure (SMILES): COCCOc1cc2ncnc(Nc3cccc(-c4cn(-c5ccc(OC)c(OC)c5)nn4)c3)c2cc1OCCOC [e19, N-(3-(1-(3,4-dimethoxyphenyl)-1H-1,2,3-triazol-4-yl)phenyl)-6,7-bis(2-methoxyethoxy)quinazolin-4-amine]
Inhibitory efficacy [2, 18]: 0.2578 and 0.3115 | Inhibitory efficacy [2, 19]: 0.424 and 0.3358 | inhibition at 2 µM [2, 20]: 32.2% | inhibition at 16 µM ([2]; Homo sapiens, NCI-H460, read-out: Inhibitory efficacy, H460 cells, 16uM, given as fraction, Repeat 1-3): 33.1% | Inhibitory efficacy [3, 21]: 0.1948 and 0.1677 | Inhibitory efficacy [3, 18]: 0.2727 and 0.2237 | Inhibitory efficacy [3, 22]: 0.2792 and 0.2418 | Inhibitory efficacy [3, 19]: 0.2527 and 0.2605 | inhibition at 1 µM ([3]; Homo sapiens, A549, read-out: Inhibitory efficacy, A549 cells, 1uM, given as fraction, Repeat 1-3): 21.2% | inhibition at 2 µM ([3]; Homo sapiens, A549, read-out: Inhibitory efficacy, A549 cells, 2uM, given as fraction, Repeat 1-3): 23.7% | inhibition at 4 µM [3, 23]: 19.7% | inhibition at 16 µM [3, 24]: 26.2% | inhibition at 1 µM ([4]; Homo sapiens): 21.9% | inhibition at 2 µM ([4]; Homo sapiens): 32.9% | inhibition at 8 µM ([4]; Homo sapiens): 35.7% | inhibition at 16 µM ([4]; Homo sapiens): 49.7% | Inhibitory efficacy ([4]; PC-9, 1uM, 1 µM): 0.1694 and 0.3158 | Inhibitory efficacy ([4]; PC-9, 2uM, 2 µM): 0.2911 and 0.3553 | Inhibitory efficacy ([4]; PC-9, 4uM, 4 µM): 0.4984 and 0.2516 and 0.3668 | Inhibitory efficacy ([4]; PC-9, 8uM, 8 µM): 0.4737 and 0.4424 | Inhibitory efficacy ([4]; PC-9, 16uM, 16 µM): 0.4062 and 0.4457

melting point: 93 to 96 °C | IC50 [1]: 0.32 µM | inhibition at 100 fM ([1]; one value per replicate column): 0% | Inhibition ([1]; concentration 0.03 nM, one value per replicate column, 3e-05 µM): 2.548 and 6.494 | inhibition at 0.0003 µM [1, 6]: 10.8% | Inhibition [1, 7]: 7.792 | inhibition at 0.003 µM [1, 8]: 31.8% | Inhibition [1, 9]: 24.6753 | inhibition at 0.03 µM [1, 10]: 31.8% | Inhibition [1, 11]: 27.2727 | inhibition at 0.3 µM [1, 12]: 49% | Inhibition [1, 13]: 35.7143 | inhibition at 3 µM [1, 14]: 63.7% | Inhibition [1, 15]: 56.4935 | inhibition at 30 µM [1, 16]: 97.5% | Inhibition [1, 17]: 98.0519 | A450 ([1]; concentration 0.0001 nM): 0.404 and 0.396 | A450 ([1]; concentration 0.03 nM): 0.4 and 0.386 | A450 ([1]; concentration 0.3 nM): 0.387 and 0.384 | A450 ([1]; concentration 3 nM): 0.354 and 0.358 | A450 ([1]; concentration 30 nM): 0.354 | A450 ([1]; concentration 300 nM): 0.327 and 0.341 | A450 ([1]; concentration 3000 nM): 0.304 and 0.309 | A450 ([1]; concentration 30000 nM): 0.251 and 0.245 | IC50 ([2]; Homo sapiens): 9.08 ± 2.81 µM | IC50 ([3]; Homo sapiens): 11.8 ± 1.7 µM | IC50 ([4]; Homo sapiens): 11.6 ± 3.64 µM | IC50 ([5]; Homo sapiens): 15.7 ± 2.76 µM
Structure (SMILES): COCCOc1cc2ncnc(Nc3cccc(-c4cn(Cc5ccccc5I)nn4)c3)c2cc1OCCOC [e2, [6,7-Bis-(2-methoxy-ethoxy)-quinazolin-4-yl]-{3-[1-(2-iodo-benzyl)-1H-[1,2,3]triazol-4-yl]-phenyl}-amine]
Inhibitory efficacy [2, 21]: 0.124 and 0.2238 | Inhibitory efficacy [2, 18]: 0.2881 and 0.2336 | Inhibitory efficacy [2, 22]: 0.2321 and 0.3138 | Inhibitory efficacy [2, 25]: 0.5164 and 0.5844 | inhibition at 1 µM ([2]; Homo sapiens, NCI-H460, read-out: Inhibitory efficacy, H460 cells, 1uM, given as fraction, Repeat 1-3): 11.6% | inhibition at 2 µM [2, 20]: 33.4% | inhibition at 4 µM ([2]; Homo sapiens, NCI-H460, read-out: Inhibitory efficacy, H460 cells, 4uM, given as fraction, Repeat 1-3): 16% | inhibition at 8 µM ([2]; Homo sapiens, NCI-H460, read-out: Inhibitory efficacy, H460 cells, 8uM, given as fraction, Repeat 1-3): 46.6% | Inhibitory efficacy [3, 22]: 0.4029 and 0.476 | Inhibitory efficacy [3, 25]: 0.4092 and 0.465 | Inhibitory efficacy [3, 19]: 0.5413 and 0.5397 | inhibition at 4 µM [3, 23]: 29.4% | inhibition at 8 µM ([3]; Homo sapiens, A549, read-out: Inhibitory efficacy, A549 cells, 8uM, given as fraction, Repeat 1-3): 41.8% | inhibition at 16 µM [3, 24]: 50.4% | inhibition at 1 µM ([4]; Homo sapiens): 7.63% | inhibition at 2 µM ([4]; Homo sapiens): 20.6% | inhibition at 4 µM ([4]; Homo sapiens, PC-9, read-out: Inhibitory efficacy, PC-9, 4uM, single repeats (Repeat 1-3), given as fraction): 28.9% | inhibition at 8 µM ([4]; Homo sapiens): 36.1% | inhibition at 16 µM ([4]; Homo sapiens): 49.1% | Inhibitory efficacy ([4]; PC-9, 1uM, 1 µM): 0.07634 and 0.0877 | Inhibitory efficacy ([4]; PC-9, 2uM, 2 µM): 0.1331 and 0.1085 | Inhibitory efficacy ([4]; PC-9, 4uM, 4 µM): 0.3461 and 0.3328 | Inhibitory efficacy ([4]; PC-9, 8uM, 8 µM): 0.365 and 0.4549 | Inhibitory efficacy ([4]; PC-9, 16uM, 16 µM): 0.6025 and 0.6224 | Inhibitory efficacy [5, 25]: 0.3905 and 0.2825 | Inhibitory efficacy [5, 19]: 0.5504 and 0.4649 | inhibition at 8 µM ([5]; Homo sapiens, NCI-H1975, read-out: Inhibitory efficacy, H1975 cells, 8uM, given as fraction, Repeat 1-3): 37.6% | inhibition at 16 µM ([5]; Homo sapiens, NCI-H1975, read-out: Inhibitory efficacy, H1975 cells, 16uM, given as fraction, Repeat 1-3): 48.4%
